Laboratory results from patent US11793885B2, “Substituted benzo[5,6][1,4]diazepino[1,2-a]indoles for the treatment of proliferative disorders” (priority 2017, dated 2023).
Where two headings read alike, the source gives them in different places.

Tests used:
[1] = test system: Namalwa (Burkitt's lymphoma); assay: in vitro cytotoxicity assay, Namalwa cells; type: cell-based, human; details: free cytotoxic compound
From the text: (§1) Following cell lines were used for the study: KB (cervical carcinoma, ATCC), NCI-H2110 (Non Small Cell Lung Carcinoma, ATCC), Namalwa (Burkitt's lymphoma, ATCC), Ishikawa (endometrial adenocarcinoma, ECACC), EOL-1 (Acute Myeloid Leukemia, ECACC), JEG-3 (choriocarcinoma, ATCC), JHOS-4 (ovarian adenocarcinoma, Riken Bioresource Center), OV-90 (ovarian adenocarcinoma, ATCC), SKOV-6 (ovarian adenocarcinoma, Memorial Sloan Kettering Cancer Center), Igrov-1 (ovarian adenocarcinoma, National Cancer Institute), KB-GRC1-MDR (cervical carcinoma/Pgp positive, gift from Dr. Roninson at the Ordway Research Institute) and T47D (breast epithelial cancer, ATCC). The cells were maintained and plated for the cytotox experiments in media recommended by the manufacturers. Cells were plated in the 96-well flat bottom plates at a seeding density of 800 cells per well (Ishikawa, JEG-3 or SK-OV-6), 1,000 cells per well (KB, Namalwa, EOL-1, OV-90 and Igrov-1) or 2,000 cell per well (NCI H2110, JHOS-4 and T47D). Conjugates or free drug compounds were diluted in RPMI-1640 (Life Technologies) supplemented with heat-inactivated 100 FBS (Life Technologies) and 0.1 mg/ml gentamycin (Life Technologies), and added to the plated cells. To determine specificity of cytotoxic activity of the conjugates an excess of unconjugated antibody was added to a separate set of diluted conjugates (+block samples, IC50 table). The plates were incubated at 37° C., 500 CO2 for either 4 days (JHOS-4 and T47D cells) or 5 days (KB, NCI H2110, Ishikawa, EOL-1, JEG-3, OV-90, SK-OV-6, NC-H441 and Igrov-1 cells). Alamar blue assay (Invitrogen) was used to determine viability of JHOS-4 and T47D cells, and WST-8 assay (Donjindo Molecular Technologies, Inc.) was applied for viability of KB, NCI H2110, Namalwa, Ishikawa, EOL-1, JEG-4, OV-90, SK-OV-6, NCI-H4441 and Igrov-1 cells. The assays were performed in accordance with the manufacturer's protocols. Killing curves and IC50 were generated using a sigmoidal dose-response nonlinear regression curve fit (GraphPad Software Inc.).

KB (cervical carcinoma) = assay: in vitro cytotoxicity assay, KB cells; type: cell-based, human; details: free cytotoxic compound, 5 days
From the text: as §1

[2] = test system: NCI-H2110 (Non Small Cell Lung Carcinoma); assay: in vitro cytotoxicity assay, NCI-H2110 cells; type: cell-based; details: free cytotoxic compound, 5 days
From the text: as §1

[3] = test system: EOL-1 (Acute Myeloid Leukemia); assay: in vitro cytotoxicity assay, EOL-1 cells; type: cell-based; details: Homo sapiens, EOL1, 120 h; free cytotoxic compound; 5 days
From the text: as §1

[4] = test system: Ishikawa (endometrial adenocarcinoma); assay: in vitro cytotoxicity assay, Ishikawa cells; type: cell-based; details: free cytotoxic compound, 5 days
From the text: as §1

[5] = test system: KB-GRC1-MDR (cervical carcinoma/Pgp positive); assay: cells; details: read-out: IC50 KB-MDR
From the text: Following cell lines were used for the study: KB (cervical carcinoma, ATCC), NCI-H2110 (Non Small Cell Lung Carcinoma, ATCC), Namalwa (Burkitt's lymphoma, ATCC), Ishikawa (endometrial adenocarcinoma, ECACC), EOL-1 (Acute Myeloid Leukemia, ECACC), JEG-3 (choriocarcinoma, ATCC), JHOS-4 (ovarian adenocarcinoma, Riken Bioresource Center), OV-90 (ovarian adenocarcinoma, ATCC), SKOV-6 (ovarian adenocarcinoma, Memorial Sloan Kettering Cancer Center), Igrov-1 (ovarian adenocarcinoma, National Cancer Institute), KB-GRC1-MDR (cervical carcinoma/Pgp positive, gift from Dr. Roninson at the Ordway Research Institute) and T47D (breast epithelial cancer, ATCC). The cells were maintained and plated for the cytotox experiments in media recommended by the manufacturers. Cells were plated in the 96-well flat bottom plates at a seeding density of 800 cells per well (Ishikawa, JEG-3 or SK-OV-6), 1,000 cells per well (KB, Namalwa, EOL-1, OV-90 and Igrov-1) or 2,000 cell per well (NCI H2110, JHOS-4 and T47D). […] To determine specificity of cytotoxic activity of the conjugates an excess of unconjugated antibody was added to a separate set of diluted conjugates (+block samples, IC50 table). The plates were incubated at 37° C., […] for either 4 days (JHOS-4 and T47D cells) or 5 days (KB, NCI H2110, Ishikawa, EOL-1, JEG-3, OV-90, SK-OV-6, NC-H441 and Igrov-1 cells). Alamar blue assay (Invitrogen) was used to determine viability of JHOS-4 and T47D cells, and WST-8 assay (Donjindo Molecular Technologies, Inc.) was applied for viability of KB, NCI H2110, Namalwa, Ishikawa, EOL-1, […], OV-90, SK-OV-6, […] and Igrov-1 cells. The assays were performed in accordance with the manufacturer's protocols. Killing curves and IC50 were generated using a sigmoidal dose-response nonlinear regression curve fit (GraphPad Software Inc.).

SMILES | IC50 ([1]; Homo sapiens) [pM] | IC50 (KB (cervical carcinoma); Homo sapiens, KB, 120 h) [pM] | IC50 ([2]; NCI-H2110, 120 h) [pM] | IC50 [3] [pM] | IC50 ([4]; Homo sapiens, Ishikawa, 120 h) [pM] | IC50 [1] [pM] | IC50 (KB (cervical carcinoma)) [pM] | IC50 [2] [pM] | IC50 [5] [pM] | IC50 ([5]; free cytotoxic compound) [pM] | IC50 [4] [pM]
COC(=O)c1cc2cc(NC(=O)c3cc(NC(=O)CCCOc4cc5c(cc4OC)C(=O)N4c6ccccc6C[C@H]4C=N5)cn3C)ccc2s1 [Compound 7] | 20 |  |  |  |  |  |  |  |  |  | 
COC(=O)CCNC(=O)c1cc2cc(NC(=O)c3cc(NC(=O)CCCOc4cc5c(cc4OC)C(=O)N4c6ccccc6C[C@H]4C=N5)cn3C)ccc2s1 [Compound 9] | 30 | 40 | 200 | 10 | 70 |  |  |  |  |  | 
COc1cc2c(cc1OCCCC(=O)Nc1ccc(-c3cc(C(=O)NCC(C)(C)S)n(C)c3)cc1)NC(S(=O)(=O)O)[C@@H]1Cc3ccccc3N1C2=O (stereo partly shown) [Compound 30] | 700 |  |  | 100 |  |  |  |  |  |  | 
COc1cc2c(cc1OCc1cccc(CC(=O)Nc3cc(C(=O)Nc4ccc(-c5cc(C(=O)NCC(C)(C)S(C)=S)n(C)c5)cc4)n(C)c3)c1)N=C[C@@H]1Cc3ccccc3N1C2=O (stereo partly shown) [Compound 55] |  |  |  |  |  | 4000 | 9000 | 2000 |  |  | 
COC(=O)c1cc2cc(NC(=O)c3cc(Nc4cccc(COc5cc6c(cc5OC)C(=O)N5c7ccccc7C[C@H]5C=N6)c4)cn3C)ccc2s1 [Compound 63] | 300 | 1000 | 3000 |  | 600 |  |  |  | > 5000 |  | 
COc1cc2c(cc1OCCCC(=O)Nc1nc(C)c(C(=O)Nc3ccc4sc(C(=O)NCC(C)(C)S(C)=S)cc4c3)s1)N=C[C@@H]1Cc3ccccc3N1C2=O (stereo partly shown) [Compound 81] |  |  |  |  |  | 3000 | > 5000 | > 5000 |  | > 5000 | > 5000
COc1cc2c(cc1OCCCC(=O)Nc1cc(C(=O)Nc3ccc(-c4cc(C(=O)NCC(C)(C)SSC)n(C)c4)cc3)n(C)c1)N=C[C@@H]1Cc3ccccc3N1C2=O [Compound 85] | 30 | 10 | 100 | 8 | 100 |  |  |  | > 5000 |  | 
COc1cc2c(cc1OCCCC(=O)Nc1cn(C)c(C(=O)Nc3ccc4nc(C(=O)NCC(C)(C)S(C)=S)n(C)c4c3)n1)N=C[C@@H]1Cc3ccccc3N1C2=O (stereo partly shown) [Compound 99] |  |  |  |  |  | 100 | 500 | 1000 |  |  | 700
COc1cc2c(cc1OCCCC(=O)Nc1cn(C)c(C(=O)Nc3ccc(-c4cc(C(=O)NCC(C)(C)SSC)n(C)c4)cn3)n1)N=C[C@@H]1Cc3ccccc3N1C2=O [Compound 103] | 20 | 70 | 200 |  | 50 |  |  |  | 400 |  | 
COc1cc2c(cc1OCCCC(=O)Nc1cn(C)c(C(=O)Nc3ccc(-c4csc(C(=O)NCC(C)(C)SSC)n4)cc3)n1)N=C[C@@H]1Cc3ccccc3N1C2=O [Compound 113] | 70 | 200 | 400 |  | 200 |  |  |  | 3000 |  | 
COc1cc2c(cc1OCCCC(=O)Nc1ccc(C(=O)Nc3cc(C(=O)NCC(C)(C)S(C)=S)n(C)c3)nc1)N=C[C@@H]1Cc3ccccc3N1C2=O (stereo partly shown) [Compound 117] |  |  |  |  |  | 300 | 600 | 2000 |  | > 5000 | 1000
COc1cc2c(cc1OCCCC(=O)Nc1cn(C)c(C(=O)NCc3cccc(C(=O)NCC(C)(C)S(C)=S)c3)n1)N=C[C@@H]1Cc3ccccc3N1C2=O (stereo partly shown) [Compound 121] |  |  |  |  |  | 600 | 2000 | 2000 |  | > 5000 | 2000
COc1cc2c(cc1OCCCC(=O)Nc1cn(C)c(C(=O)Nc3ccc(-c4cc(C(=O)NCC(C)(C)SSC)n(C)c4)cc3)n1)N=C[C@@H]1Cc3ccccc3N1C2=O [Compound 125] | 10 | 40 | 60 | 4 | 50 |  |  |  | 900 |  | 
COc1cc2c(cc1OCCCC(=O)Nc1cc(C(=O)Nc3cc(C(=O)NCC(C)(C)SSC)n(C)c3)n(C)c1)N=C[C@@H]1Cc3ccccc3N1C2=O [Compound 132] | 90 | 400 | 2000 | 40 |  |  |  |  |  |  | 
